The values below come from PMC2990756, “Quantitative High-Throughput Screening Identifies 8-Hydroxyquinolines as Cell-Active Histone Demethylase Inhibitors” (PLoS ONE, 2010).

Holding throughout (type): biochemical
In one experiment the target is T1, JMJD2E (Homo sapiens, UniProt B2RXH2).
T1 sequence (B2RXH2 1-337): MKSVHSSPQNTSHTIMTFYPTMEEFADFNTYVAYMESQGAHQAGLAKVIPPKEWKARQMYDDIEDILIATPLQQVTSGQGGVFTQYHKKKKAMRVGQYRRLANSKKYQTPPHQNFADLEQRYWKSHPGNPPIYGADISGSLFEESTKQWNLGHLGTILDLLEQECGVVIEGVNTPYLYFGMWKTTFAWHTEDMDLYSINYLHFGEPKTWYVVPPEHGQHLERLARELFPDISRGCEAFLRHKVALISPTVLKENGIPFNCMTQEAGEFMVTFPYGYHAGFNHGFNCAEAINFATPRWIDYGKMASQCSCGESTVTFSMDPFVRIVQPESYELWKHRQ
Briefly: JMJD2E FDH-coupled assay under low and high iron conditions (iron chelation profile). Set-up: The catalytic domain of human JMJD2E (residues 1–337); His6 (N); made in house; host or cells: E. coli. To be noted: 25 and 2.5 µM Fe(II).

For experiment [1], the target named is T2, formaldehyde dehydrogenase (FDH) (Pseudomonas putida, UniProt P46154).
T2 construct: purchased Sigma-Aldrich
T2 sequence (P46154 whole entry): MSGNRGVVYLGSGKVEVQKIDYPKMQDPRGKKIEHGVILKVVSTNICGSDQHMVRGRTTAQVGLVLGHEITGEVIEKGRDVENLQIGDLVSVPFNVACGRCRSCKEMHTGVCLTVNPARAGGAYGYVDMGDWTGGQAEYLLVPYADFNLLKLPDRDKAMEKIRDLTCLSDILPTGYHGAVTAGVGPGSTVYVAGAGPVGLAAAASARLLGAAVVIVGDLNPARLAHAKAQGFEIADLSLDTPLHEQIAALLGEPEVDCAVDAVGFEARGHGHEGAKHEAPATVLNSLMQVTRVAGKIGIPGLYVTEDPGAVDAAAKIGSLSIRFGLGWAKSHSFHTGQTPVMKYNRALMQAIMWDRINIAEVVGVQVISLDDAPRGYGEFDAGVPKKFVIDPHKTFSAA
Briefly: FDH coupling enzyme counterscreen. Background: Counterscreens check selectivity or assay interference.
Excerpt: Dimethylsulfoxide certified ACS grade (DMSO) was from Fisher, Inc. HEPES buffer was obtained from Gibco. […] Black solid-bottom 1,536-well assay plates were from Greiner Bio-One (Monroe, NC).

The target in another experiment is T3, JMJD2E (KDM4E) (Homo sapiens, UniProt B2RXH2).
T3 construct: The catalytic domain of human JMJD2E (residues 1–337); His6 (N); made in house; host or cells: E. coli
T3 sequence (B2RXH2 1-337): T1 sequence (B2RXH2 1-337)
Briefly: qHTS fluorescence FDH-coupled JMJD2E demethylase assay. Background: In qHTS, concentration-response curves come from the screen itself.

Setting [2] is: Figure 3, substituted 8-hydroxyquinolines against JMJD2E, read-out: IC50 /μM (qHTS IC50, FDH-coupled assay).
[3] abbreviates: Table S1, FDH counterscreen, unit not in table, from Figure 2, read-out: qHTS Data: jmjd2e fdh IC50.

Read-outs that look alike come from different tables or passages of the source.

Excerpt for JMJD2E (KDM4E): The oxidation of formaldehyde is coupled to the reduction of NAD^+ to NADH, which is monitored by fluorescence spectroscopy. […] To this end, initial screening hits were filtered by a combination of cheminformatics (to exclude low-confidence inhibitors and autofluorescent false positives), counterscreening against the coupled-assay component formaldehyde dehydrogenase (FDH), and orthogonal direct detection of inhibition of demethylation by mass spectrometry ( Figure 1 ).
Reactions were initiated with 1 µL addition of peptide substrate solution containing final concentrations of 10 µM FAS, 50 µM 2OG, 0.25 U/mL FDH, 0.25 mM NAD^+, and 50 µM peptide substrate (ARK(me3)STGGK). A ViewLux imager (PerkinElmer, Waltham, MA) was used to measure NADH fluorescence (λex 340 nm, λem 450 nm) immediately after substrate addition and following 30 min incubation at room temperature. To record any systematic drifts in assay behavior (signal window and noise), assay plates containing no library compounds but only DMSO as a vehicle control were tested periodically (every ∼60 plates) throughout the screen.
Data were normalized to the basal response (0% activity) in the absence of enzyme and the maximal response (100% activity) in the absence of compound. Using the Hill equation, dose-response curves and IC50 values were automatically generated for each compound tested with software developed internally (www.ncgc.nih.gov/pub/openhts/curvefit/). […] The initial well fluorescence (first kinetic read) associated with each sample was stored in a database and used in the cheminformatics analysis to identify autofluorescent compounds interfering with the assay signal.

Regarding `O=C(O)CN(CCN(CC(=O)O)CC(=O)O)CC(=O)O` [EDTA, reference compound], the “ratio of IC50 values under high iron to low iron” value on JMJD2E was found to be 5.9.
Take `O=C(Cc1ccccc1)N1CCN(Cc2ccccn2)CC1` [SID 4263376]: the IC50 in experiment [1] (IC50 values in μM, FDH, Figure 2, 0.025 U/mL FDH, 10 µM formaldehyde) is greater than 57 µM.
As for `COc1ccccc1NC(=O)c1sc2ncn(Cc3ccccc3C)c(=O)c2c1C` [SID 17408386], the IC50 on JMJD2E (KDM4E) (Figure 2, 100 nM JMJD2E, 10 µM FAS, read-out: IC50 values in μM, qHTS) stood at 4.5 µM.
As for `CC1(OC(=O)CCc2ccccc2)C(=O)C=C2C=C(c3ccc(C#N)cc3)N(C3CC3)C=C2C1=O` (stereo not drawn) [SID 26725552], the IC50 in experiment [1] (Figure 2, 0.025 U/mL FDH, 10 µM formaldehyde, read-out: IC50 values in μM, FDH) was greater than 57 µM.
Take `O=C(O)c1ccnc2c(O)cccc12` [SID 85736397, 4-carboxy-8-hydroxyquinoline]: the IC50 at JMJD2E (KDM4E) (FDH coupled assay, read-out: IC50 against JMJD2E) is 2 µM; at JMJD2E (KDM4E) (setting [2]), 2.0 µM.
As for `O=C(O)C(=O)O.O=C(c1ccccc1)N1CCN(CC2CC=CCC2)CC1` (stereo not drawn) [compound 844960], the “qHTS Data: jmjd2e fdh CurveClass” value in experiment [1] (Table S1, FDH counterscreen) was “Inconclusive”. In addition, the IC50 in experiment [1] (setting [3]) was 5.01 µM.
As to `Oc1ccc(COCc2ccccc2)c2cccnc12` [compound 848472], on JMJD2E (KDM4E) (setting [2]), the IC50 is 36 µM.
With `Cc1ccc(NC2=CC(=O)CC(C)(C)C2)c(N)c1` [compound 849268], in experiment [1] (Table S1, FDH counterscreen), the “qHTS Data: jmjd2e fdh CurveClass” value is given as “Inactive”.
On to `OCc1ccnc2c(O)cccc12` [compound 857270], for which, at JMJD2E (KDM4E) (setting [2]), the IC50 was found to be 8.9 µM.
For the molecule `CC1=C(C(N)=O)C(c2ccc3c(c2)OCO3)n2nc(-c3cccc(C)c3)nc2N1` (stereo not drawn) [compound 4245376], the “qHTS Data: jmjd2e fdh CurveClass” value in experiment [1] (Table S1, FDH counterscreen) is given as “Inactive”.
In the case of `Cc1nc(NC(=O)c2oc3ccccc3c2C)sc1C(=O)N(C)C` [compound 4262050], in experiment [1] (Table S1, FDH counterscreen), the “qHTS Data: jmjd2e fdh CurveClass” value was “Poor quality curve”.
Take `O=C(Cc1ccccc1)N1CCN(Cc2ccccn2)CC1` [compound 4263376]: the “qHTS Data: jmjd2e fdh CurveClass” value in experiment [1] (Table S1, FDH counterscreen) is reported as “Inactive”.
Regarding `CC(C)NC[C@H](O)c1ccc(O)c(O)c1` [compound 11112573], the “qHTS Data: jmjd2e fdh CurveClass” value in experiment [1] (Table S1, FDH counterscreen) is given as “Inactive”.
As for `Oc1cccc2ccc(/C=C/c3cccs3)nc12` [compound 14734630], the IC50 on JMJD2E (KDM4E) (setting [2]) was greater than 39 µM.
Take `O=C(CC1Sc2ncnn2C1=O)Nc1ccccc1` (stereo not drawn) [compound 14735867]: the IC50 in experiment [1] (setting [3]) turned out to be 0.28 µM.
Same read-out and setting: in the case of `Fc1ccc(/C=C2\CCCC3=C2Nc2ncnn2C3c2ccc(F)cc2)cc1` (stereo not drawn) [compound 14745056] it was 10 µM.
Consider `O=C(NNC(=O)c1ccc(O)cc1O)c1ccc(Cl)cc1` [compound 17414133], for which the “qHTS Data: jmjd2e fdh CurveClass” value in experiment [1] (Table S1, FDH counterscreen) is “Inactive”.
Regarding `Cc1ccc(SCCCCN2CCNCC2)cc1.O=C(O)C(=O)O` [compound 17504558], the “qHTS Data: jmjd2e fdh CurveClass” value in experiment [1] (Table S1, FDH counterscreen) was “Inactive”.
The same measure, in the same setting: the entry for `COc1cc(CNCCN2CCOCC2)ccc1OCc1c(Cl)cccc1Cl.Cl` [compound 17505294] is “Inactive”; for `O=c1cc(O)c2sc(Nc3ccc(F)cc3)nc2[nH]1` [compound 17505973] it is “Inactive”.
As to `CCOc1ccc2ccccc2c1/C=N/NC(=O)CNC(=O)C(c1ccccc1)c1ccccc1` [compound 17512004], the IC50 in experiment [1] (setting [3]) was found to be 10 µM.
For the molecule `FC(F)(F)c1ccccc1CN1CCN(C2CCCCCC2)CC1.O=C(O)C(=O)O` [compound 22403162], the “qHTS Data: jmjd2e fdh CurveClass” value in experiment [1] (Table S1, FDH counterscreen) was “Inactive”.
On the same count and under the same terms, in the case of `C/C(Cn1nnc([N+](=O)[O-])n1)=N\NC(=O)c1ccc(O)cc1O` [compound 22414653] it was “Inactive”; in that of `CCC(=O)c1ccccc1OCCN1CCN(Cc2ccccc2)CC1.O=C(O)C(=O)O` [compound 24782649], “Inactive”; in that of `Clc1ccc(SCCN2CCNCC2)cc1.O=C(O)C(=O)O` [compound 24783981], “Inactive”.
On the same count and under the same terms, in the case of `CCNc1nc(C(=O)O)nc(N2CCOCC2)n1` [compound 24789924] it was “Inactive”; in that of `O=C(CN1CCN(c2ncccn2)CC1)N1CCCC1.O=C(O)C(=O)O` [compound 24790164], “Inactive”; in that of `O=C(CN1CCCCCC1)NCC1CCCO1.O=C(O)C(=O)O` (stereo not drawn) [compound 24790169], “Inactive”.
Same read-out and setting: in the case of `Cc1cccc(NCc2ccc(O)c3ncccc23)c1` [compound 24790252] it was “Inactive”.
Regarding `S=c1nc(C2COc3ccccc3O2)[nH][nH]1` (stereo not drawn) [compound 24801312], the “qHTS Data: jmjd2e fdh CurveClass” value in experiment [1] (Table S1, FDH counterscreen) is -1.3. In addition, in experiment [1] (setting [3]), the IC50 amounted to 15.8 µM.
Consider `Cc1cc(N(C)/N=C/c2ccccc2)nc(-c2ccccc2O)n1` [compound 24801833], for which the IC50 in experiment [1] (setting [3]) was found to be 39.8 µM.
Turning to `CC1CCN(CC(=O)NCCc2ccc(F)cc2)CC1.O=C(O)C(=O)O` [compound 24804760], in experiment [1] (Table S1, FDH counterscreen), the “qHTS Data: jmjd2e fdh CurveClass” value was “Poor quality curve”.
Still for that read-out and setting: the entry for `O=C(O)C(=O)O.S=C(NCC1CCCO1)N1CCN(Cc2ccccc2)CC1` (stereo not drawn) [compound 24807070] is “Inactive”.
Regarding `COc1cccc(CN2CCN(C(=O)c3ccc(-c4ccccc4)cc3)CC2)c1OC.O=C(O)C(=O)O` [compound 24807835], in experiment [1] (Table S1, FDH counterscreen), the “qHTS Data: jmjd2e fdh CurveClass” value is “Inactive”.
In the case of `Cc1cccc(N2C(=O)CC(Sc3ncn[nH]3)C2=O)c1` (stereo not drawn) [compound 24809940], the IC50 in experiment [1] (setting [3]) is 0.28 µM.
Take `CN(C)c1cc(N/N=C/c2ccc(Cl)cc2)nc(N(C)C)n1` [compound 24813304]: in experiment [1] (Table S1, FDH counterscreen), the “qHTS Data: jmjd2e fdh CurveClass” value is given as “Poor quality curve”. Besides, in experiment [1] (setting [3]), the IC50 was 14.1 µM.
As to `O=C(O)C(=O)O.c1cc(CN2CCN(C3CCCCCC3)CC2)ccn1` [compound 24817627], in experiment [1] (Table S1, FDH counterscreen), the “qHTS Data: jmjd2e fdh CurveClass” value is on record as “Inactive”.
On to `O=C(Nc1ccccc1C(F)(F)F)c1ncn[nH]1` [compound 24822488], for which the “qHTS Data: jmjd2e fdh CurveClass” value in experiment [1] (Table S1, FDH counterscreen) is on record as “Poor quality curve”. Further, the IC50 in experiment [1] (setting [3]) was 22.4 µM.
`O=C(CN1CCN(Cc2ccccc2)CC1)NC(c1ccccc1)c1ccccc1.O=C(O)C(=O)O` [compound 24822653]: in experiment [1] (Table S1, FDH counterscreen), the “qHTS Data: jmjd2e fdh CurveClass” value is on record as “Inactive”.
The same measure, in the same setting: in the case of `CC(CCc1ccccc1)NC(=O)CN1CCN(c2ccc(O)cc2)CC1` (stereo not drawn) [compound 24833440] it was “Inactive”; in that of `CN(C)CCCNCC(=O)Nc1ccc(Cl)cc1C(=O)c1ccccc1.O=C(O)C(=O)O` [compound 24839839], “Inactive”.
Consider `COc1ccc(Cl)cc1CSc1ncn[nH]1` [compound 26662682], for which the IC50 in experiment [1] (setting [3]) came to 0.32 µM.
On to `CCCCn1c(=O)[nH]c2nc3cc(NC(C)=O)ccc3nc2c1=O` [compound 26671554], for which the IC50 in experiment [1] (setting [3]) was 11.2 µM.
For the molecule `COc1cc(C2C3=C(CCCC3=O)Nc3c2c(C)nn3-c2cccc(C)c2)cc(OC)c1O` (stereo not drawn) [compound 26724424], the “qHTS Data: jmjd2e fdh CurveClass” value in experiment [1] (Table S1, FDH counterscreen) is recorded as “Inactive”.
Still for that read-out and setting: in the case of `CC1(OC(=O)C2CCCC2)C(=O)C=C2C=C(c3ccsc3)N(CCc3ccccn3)C=C2C1=O` (stereo not drawn) [compound 26725362] it was “Inactive”.
For `COC(=O)CCC(=O)OC1(C)C(=O)C=C2C=C(C3CC3)N(CCc3ccccn3)C=C2C1=O` (stereo not drawn) [compound 26725368], the “qHTS Data: jmjd2e fdh CurveClass” value in experiment [1] (Table S1, FDH counterscreen) was “Inactive”.
Still for that read-out and setting: in the case of `COCCN1C=C2C(=O)C(C)(OC(=O)CCc3ccccc3)C(=O)C=C2C=C1c1ccc(C#N)cc1` (stereo not drawn) [compound 26725518] it was “Poor quality curve”; in that of `CC1(OC(=O)CCc2ccccc2)C(=O)C=C2C=C(c3ccc(C#N)cc3)N(C3CC3)C=C2C1=O` (stereo not drawn) [compound 26725552], “Inactive”.
On the same count and under the same terms, in the case of `Cc1noc(C)c1C(=O)NNc1ccc(C(C)C)cc1` [compound 26728365] it was “Inactive”.
